According to article PMC4655838, “Versatility in phospho-dependent molecular recognition of the XRCC1 and XRCC4 DNA-damage scaffolds by aprataxin-family FHA domains” (DNA Repair, 2015):
Like-named read-outs stand apart in the source and are kept apart here. Square brackets hold non-standard residues; d marks the D form. Peptide text beside a SMILES is read from it. pT = C[C@@H](OP(=O)(O)O)[C@H](N)C(=O)O; pS = N[C@@H](COP(=O)(O)O)C(=O)O

Tests used:
Format in all cases: binding
[1] = molecular target: T1, wild-type APLF FHA domain (Homo sapiens, UniProt Q8IW19); test: ITC of wild-type APLF FHA domain with XRCC1 and XRCC4 phosphopeptides; conditions: 22 °C, 50 mM HEPES pH 7.5, 150 mM NaCl, 5 mM β-mercaptoethanol, peptide in syringe, XRCC1 peptides 1 mM into 100 μM protein, XRCC4 peptides 300 μM into 30 μM protein, single-site model, representative of triplicate
T1 construct: APLF residues 1–106; GST (pGEX-6P-1) (N, cleaved yes); made in house; host or cells: Escherichia coli Rosetta2 (DE3)
T1 sequence (Q8IW19 1-106): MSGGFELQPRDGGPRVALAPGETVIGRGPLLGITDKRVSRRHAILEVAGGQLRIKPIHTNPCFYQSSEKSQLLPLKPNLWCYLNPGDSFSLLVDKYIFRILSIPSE
From the text: (§1) The genes for aprataxin residues 1–105 and APLF residues 1–106 were amplified using primer sets which incorporated 5′ BamHI and 3′ XhoI sites. PCR products and pGEX-6P-1 vector were digested with BamHI and XhoI and religated. All point mutations were generated using a QuickChange Site-Directed Mutagenesis Kit (Stratagene) following the manufacturer's recommended protocol.
For expression, the pGEX-6P-1/aprataxin-FHA constructs were transformed into Escherichia coli strain BL21 (DE3) and the pGEX-6P-1/APLF-FHA constructs transformed into the strain Rosetta2 (DE3). Cells were grown in LB at 37 °C to an A600 of 0.5, induced with 0.4 mM isopropyl 1-thio-β-D-galactopyranoside and incubated at 18 °C for a further 16 h before harvesting. […]
Phosphopeptides based on the XRCC1 sequence 515-YAGSTDENTDSEEHQ-529 and the XRCC4 sequence 229-YDESTDEES-237 were synthesised with amidated C-termini to avoid potential end-effects of a free carboxy-terminus by Dr. W. Mawby (University of Bristol), purified by HPLC and characterised by mass spectrometry. FHA-phosphopeptide binding was quantified by isothermal titration calorimetry using a Microcal Omega VP-ITC calorimeter (MicroCal Inc., Northampton, MA). […] Heats of dilution were subtracted and binding isotherms were plotted and analysed with MicroCal origin version 7.0, assuming a single-site binding model.

[2] = molecular target: T2, K38A Mutant of aprataxin FHA domain (Homo sapiens, UniProt Q7Z2E3, K52A); test: ITC of K38A mutant of aprataxin FHA domain with XRCC1 and XRCC4 phosphopeptides; conditions: 22 °C, 50 mM HEPES pH 7.5, 150 mM NaCl, 5 mM β-mercaptoethanol, single-site model
T2 construct: aprataxin residues 1–105; GST (pGEX-6P-1) (N, cleaved yes); made in house; host or cells: Escherichia coli BL21 (DE3)
From the text: as §1
(§2) For expression, the pGEX-6P-1/aprataxin-FHA constructs were transformed into Escherichia coli strain BL21 (DE3) and the pGEX-6P-1/APLF-FHA constructs transformed into the strain Rosetta2 (DE3). Cells were grown in LB at 37 °C to an A600 of 0.5, induced with 0.4 mM isopropyl 1-thio-β-D-galactopyranoside and incubated at 18 °C for a further 16 h before harvesting. Cells were lysed by sonication and clarified by centrifugation (20,000 × g × 30 min). The supernatant was applied to a glutathione-4B resin (Amersham) and cleaved from the resin with rhinovirus 3C protease. Proteins were purified further by gel-filtration chromatography on a Superdex 75 matrix in 20 mM Tris pH 7.5, 150 mM NaCl, 5 mM DTT. Selenomethionine-labelled APLF L91 M protein was expressed in Rosetta2 (DE3) cells cultured in SelenoMet base media and nutrients supplemented with seleno-methionine solution (Molecular Dimensions Ltd.) and purified as the wild-type protein.
(§3) Phosphopeptides based on the XRCC1 sequence 515-YAGSTDENTDSEEHQ-529 and the XRCC4 sequence 229-YDESTDEES-237 were synthesised with amidated C-termini to avoid potential end-effects of a free carboxy-terminus by Dr. W. Mawby (University of Bristol), purified by HPLC and characterised by mass spectrometry. FHA-phosphopeptide binding was quantified by isothermal titration calorimetry using a Microcal Omega VP-ITC calorimeter (MicroCal Inc., Northampton, MA). Protein was dialysed against ITC buffer (50 mM HEPES pH 7.5, 150 mM NaCl, 5 mM β-mercaptoethanol) and peptides were dissolved in the dialysis buffer. Experiments were carried out at 22 °C and involved 30 successive 10 μl injections of peptide solution into a sample cell containing protein solution. Titrations with XRCC1 peptides used peptide at 1 mM and protein at 100 μM and titrations with XRCC4 peptides used peptide at 300 μm and protein at 30 μM. Heats of dilution were subtracted and binding isotherms were plotted and analysed with MicroCal origin version 7.0, assuming a single-site binding model.

[3] = molecular target: T3, wild-type aprataxin FHA domain (Homo sapiens, UniProt Q7Z2E3); test: ITC of wild-type aprataxin FHA domain with XRCC1 and XRCC4 phosphopeptides; conditions: 22 °C, 50 mM HEPES pH 7.5, 150 mM NaCl, 5 mM β-mercaptoethanol, peptide in syringe, XRCC1 peptides 1 mM into 100 μM protein, XRCC4 peptides 300 μM into 30 μM protein, single-site model, representative of triplicate
T3 construct: aprataxin residues 1–105; GST (pGEX-6P-1) (N, cleaved yes); made in house; host or cells: Escherichia coli BL21 (DE3)
From the text: as §1, §2, §3

[4] = molecular target: T4, R42A Mutant of aprataxin FHA domain (Homo sapiens, UniProt Q7Z2E3, R56A); test: ITC of R42A mutant of aprataxin FHA domain with XRCC1 and XRCC4 phosphopeptides; conditions: 22 °C, 50 mM HEPES pH 7.5, 150 mM NaCl, 5 mM β-mercaptoethanol, single-site model
T4 construct: aprataxin residues 1–105; GST (pGEX-6P-1) (N, cleaved yes); made in house; host or cells: Escherichia coli BL21 (DE3)
From the text: as §1, §2, §3

aprataxin FHA domain = molecular target: T5, aprataxin FHA domain (Homo sapiens, UniProt Q7Z2E3); test: NMR (1H-SOFAST-HMQC) titrations of aprataxin FHA domain with XRCC1 phosphopeptides; conditions: NMR titration, 22 °C
T5 construct: aprataxin residues 1–105; GST (pGEX-6P-1) (N, cleaved yes); made in house; host or cells: Escherichia coli BL21 (DE3)
Method: NMR experiments were carried out at 22 °C on Bruker Avance II+ 600 MHz and Avance III 700 MHz spectrometers, each equipped with a cryogenic triple-resonance probe. Protein and peptides were prepared in NMR buffer (20 mM Na Acetate pH 5.8, 50 mM NaCl, 2 mM DTT). Three-dimensional HNCA, HNCO, HNCACB and CBCA(CO)NH experiments were performed to obtain backbone assignments. NMR titration experiments were carried out by adding the unlabelled XRCC1 peptides to ^15N-labeled aprataxin FHA domain. The initial protein concentration was 92 μM and volumes of 2 mM stock solution of peptide were added until the protein:peptide ratio was 1:4. ^1H-SOFAST-HMQC [36] spectra were measured after each titration step. All spectra were processed using nmrPipe, and analysed using CARA/NEASY [38]. The weighted chemical shift change (in ppm units) of each amide proton (ΔδHN) and nitrogen (ΔδN) was calculated according to the equation: Δδtotal = [(ΔδHNWHN)^2 + (ΔδNWN)^2]^1/2 with WHN = 1 and WN = 0.154 [39]. Weighted chemical shifts for residues D37, V45, Q46, V61 and V63 were plotted against peptide concentration to determine individual Kds and averaged to determine the apparent Kd.

T5 sequence (Q7Z2E3 15-119): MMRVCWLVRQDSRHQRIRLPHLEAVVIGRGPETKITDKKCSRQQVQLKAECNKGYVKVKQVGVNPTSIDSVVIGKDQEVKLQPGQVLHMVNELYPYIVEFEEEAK
T2 sequence (Q7Z2E3 15-119 K52A): as the sequence (Q7Z2E3 15-119) above, with K38A counted along it
T4 sequence (Q7Z2E3 15-119 R56A): as the sequence (Q7Z2E3 15-119) above, with R42A counted along it
T3 sequence (Q7Z2E3 15-119): as the sequence (Q7Z2E3 15-119) above

## C[C@H](NC(=O)[C@@H](N)Cc1ccc(O)cc1)C(=O)NCC(=O)N[C@@H](COP(=O)(O)O)C(=O)N[C@H](C(=O)N[C@@H](CC(=O)O)C(=O)N[C@@H](CCC(=O)O)C(=O)N[C@@H](CC(N)=O)C(=O)N[C@H](C(=O)N[C@@H](CC(=O)O)C(=O)N[C@@H](CO)C(=O)N[C@@H](CCC(=O)O)C(=O)N[C@@H](CCC(=O)O)C(=O)N[C@@H](Cc1c[nH]cn1)C(=O)N[C@@H](CCC(N)=O)C(N)=O)[C@@H](C)OP(=O)(O)O)[C@@H](C)OP(=O)(O)O [YAGpSpTDENpTDSEEHQ] (H-YAG[pS][pT]DEN[pT]DSEEHQ-NH2)
[1]
  Kd: 11000 ± 500 nM
[2]
  Kd: 4400 ± 300 nM
[3]
  Kd: 500 ± 50 nM
[4]
  Kd: 28700 ± 1900 nM
Aprataxin FHA domain; 20 mM Na Acetate pH 5.8, 50 mM NaCl, 2 mM DTT, 92 µM 15N aprataxin FHA, 2 mM peptide stock, read-out: Kd from weighted chemical shift of residue Asp37
  Kd: 100 nM
Aprataxin FHA domain; pH 5.8, 92 µM aprataxin FHA, read-out: Kd from weighted chemical shift of residue Gln46
  Kd: 100 nM
Aprataxin FHA domain; pH 5.8, 92 µM aprataxin FHA, read-out: Kd from weighted chemical shift of residue Val45
  Kd: 600 nM
Aprataxin FHA domain; pH 5.8, 92 µM aprataxin FHA, read-out: Kd from weighted chemical shift of residue Val61
  Kd: 100 nM
Aprataxin FHA domain; pH 5.8, 92 µM aprataxin FHA, read-out: Kd from weighted chemical shift of residue Val63
  Kd: 500 nM
Aprataxin FHA domain; pH 5.8, mean of individual Kds of D37, V45, Q46, V61, V63, read-out: Kd, Mean (SEM) over five residues (apparent Kd)
  Kd: 300 nM
Aprataxin FHA domain; pH 5.8, tighter binders not well defined due to high protein concentration, read-out: overall apparent affinity (Kdapp) estimated from NMR titrations
  Kd: < 1000 nM
